Patent US7939554B2, “Protein phosphatase inhibitors” (The Cleveland Clinic Foundation, priority 2006, dated 2011)

Legend:
PTPase CD45 = biological target: T1, PTPase CD45 (Homo sapiens, UniProt P08575); assay: pLck-pY505 levels in L5-treated Jurkat cells; type: cell-based; details: FIG. 4D
T1 construct: endogenous in cells; host or cells: Jurkat
T1 sequence (P08575 26-1306): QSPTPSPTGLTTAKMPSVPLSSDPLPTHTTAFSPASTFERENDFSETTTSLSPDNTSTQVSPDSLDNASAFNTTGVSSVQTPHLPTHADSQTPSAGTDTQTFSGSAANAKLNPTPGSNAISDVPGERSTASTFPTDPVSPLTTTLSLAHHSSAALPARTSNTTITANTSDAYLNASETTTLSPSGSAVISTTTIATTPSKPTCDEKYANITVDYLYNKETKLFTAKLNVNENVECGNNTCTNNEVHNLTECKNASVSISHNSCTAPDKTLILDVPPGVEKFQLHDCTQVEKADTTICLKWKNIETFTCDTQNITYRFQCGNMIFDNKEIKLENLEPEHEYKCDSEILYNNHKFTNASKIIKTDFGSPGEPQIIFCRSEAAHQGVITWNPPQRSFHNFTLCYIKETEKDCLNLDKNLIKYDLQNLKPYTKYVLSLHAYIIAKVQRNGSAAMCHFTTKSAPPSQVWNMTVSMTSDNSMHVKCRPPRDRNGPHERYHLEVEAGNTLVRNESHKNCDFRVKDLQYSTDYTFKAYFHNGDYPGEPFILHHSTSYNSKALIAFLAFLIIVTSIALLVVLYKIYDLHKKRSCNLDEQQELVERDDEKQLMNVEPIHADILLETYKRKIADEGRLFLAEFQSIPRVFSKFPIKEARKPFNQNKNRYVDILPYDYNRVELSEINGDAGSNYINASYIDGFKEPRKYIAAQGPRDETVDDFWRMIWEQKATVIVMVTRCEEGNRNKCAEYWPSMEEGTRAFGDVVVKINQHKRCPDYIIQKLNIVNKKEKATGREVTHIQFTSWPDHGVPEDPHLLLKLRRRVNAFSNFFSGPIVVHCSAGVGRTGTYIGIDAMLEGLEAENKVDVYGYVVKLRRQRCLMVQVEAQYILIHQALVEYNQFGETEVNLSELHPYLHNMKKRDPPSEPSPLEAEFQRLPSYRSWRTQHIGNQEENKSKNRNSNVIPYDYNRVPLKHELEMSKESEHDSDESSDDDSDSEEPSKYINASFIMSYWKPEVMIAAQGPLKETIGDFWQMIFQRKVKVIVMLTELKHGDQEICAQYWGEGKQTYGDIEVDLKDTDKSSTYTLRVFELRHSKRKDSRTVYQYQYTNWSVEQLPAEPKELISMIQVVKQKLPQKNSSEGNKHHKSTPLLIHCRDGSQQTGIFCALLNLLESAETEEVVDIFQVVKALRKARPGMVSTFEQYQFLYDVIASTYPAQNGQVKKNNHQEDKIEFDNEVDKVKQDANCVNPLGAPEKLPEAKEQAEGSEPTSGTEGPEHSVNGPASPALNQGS
Method: Jurkat cells in culture medium (3×10^6 cells/ml, 1 ml/tube) were treated with agents for designated times at room temperature. After brief centrifuging in a microfuge (4,000 rpm, 2 min), the cell pellet was lysed on ice for 30 min in […] of cold lysis buffer (1% NP40, 50 mM Tris, pH 7.4, 150 mM NaCl, 20 mM NaF, 0.2 mM Na3VO4 and 1 mM Na3MO4) containing a cocktail of proteinase inhibitors (Sigma, 1 tablet/10 ml). The lysates were cleared by centrifuging (14,000 rpm, 10 min) in a microfuge at 4° C. to remove insoluble parts, mixed with equal volume of 2×SDS-PAGE sample buffer, boiled for 5 min and analyzed (˜3×10^5 cells/well) by SDS-PAGE/Western blotting. Relative intensities of phosphotyrosine bands were quantified through densitometry analysis.
To assess the effects of L5 on other phosphatases, pERK1/2 and pLck-pY505 in L5-treated Jurkat cells were quantified. SHP-2 is known to be a positive mediator of pERK1/2 whereas pLck-pY505 is dephosphorylated by PTPase CD45.

human peripheral blood = assay: induction of IFNγ+ cells in human peripheral blood in vitro (ELISPOT); type: cell-based
Method: For induction of human primary IFNγ+ cells, heparinized peripheral blood samples were obtained by vein-puncture from healthy volunteers following an established protocol approved by the Institutional Review Board (IRB) of Cleveland Clinic. To mimic in vivo drug-exposure, human peripheral blood samples were directly treated with different agents without pre-separation of white blood cells from other blood components. Blood samples (0.1 ml/sample) were mixed with the agents, incubated at 37° C. for 4 hrs, diluted with 5 volumes of hypotonic solution (10 mM Tris, pH 7.4; 10 mM NaCl) to lyse RBC and centrifuged to pellet WBCs. The pellets were washed with hypotonic solution one time, re-suspended in RPMI 1640 medium (10% FCS) and used for ELISPOT assays (Human IFNγ ELISPOT Kit, R & D System) to quantify human IFNγα cells as outlined above.

Structure (SMILES): O=C1C=CC(=O)C(c2cc(Cl)ccc2Cl)=C1 [L5]
- effect on pLck-pY505 (PTPase CD45): little effects
- maximal induction of IFNγ+ cells in human peripheral blood (human peripheral blood; 8 μg/ml): 20 fold
- effectiveness relative to SSG in inducing IFNγ+ cells (human peripheral blood; maximal induction at a comparable dose, human peripheral blood): ~20 fold
